Experimental findings from US7423015B1, “Antihelminthic drugs as a treatment for hyperproliferative diseases” (Board of Regents, The University of Texas System, priority 2001, dated 2008) are described below.

Holding throughout (type): cell-based
For one assay, the system named is HeLa (p53 inactivated). The assay is described as follows: Proliferation assay, 50% growth inhibitory concentration. Particulars: Homo sapiens, 24 h, after 1 day of exposure. The method, then: (§1) All cell lines were grown in RPMI 1640 medium supplemented with 5% fetal bovine serum and 5% CO2. All experiments were done when the cells were 70% confluent. For cell growth measurements, 5×10^4 cells were plated in each well of six-well plates. Control and BZ-treated (0.05 μg/ml) cells were trypsinized and counted using a hemocytometer. Experiments were done in triplicate and the mean and standard deviation were determined by standard methods.
(§2) Studies to determine the IC50 for fenbendazole and mebendazole were performed on a panel of six different human cancer cell lines: two carrying the wild-type p53 gene and actively expressing the p53 protein, (H460 and A549); one marked by homozymes deletion of the p53 gene and lacking p53 gene expression (H358); two expressing mutant p53 (H322 and H596); and one in which wild-type p53 is inactivated by human papilloma virus E6 protein. […] A dose of 166 nM (˜[…]) was chosen for these studies because it had been shown previously that this concentration was sufficient to induce wild-type p53 after 24 h of treatment.

In a further assay the test system is H322. The assay is described as above. Particulars: Homo sapiens, NCI-H322, 24 h; H322, p53 mutated; after 1 day of exposure. The procedure:
as §1, §2

The next assay deals with A549. The assay is described as above. The conditions noted are these: Homo sapiens, 24 h; A549, p53 positive; after 1 day of exposure. The method, then:
as §1, §2

Assay [1] concerns H460. Described as above. The conditions noted are these: Homo sapiens, NCI-H460, 24 h; H460, p53 positive; inhibit growth by 50% after 1 day of exposure. The method, then:
as §1, §2

The test system of assay [2] is H358. Described as above. The conditions noted are these: Homo sapiens, NCI-H358, 24 h; H358, p53 deleted; after 1 day of exposure. The method, then: as §1, §2
The test system of assay [3] is H596. The description is as above. The conditions noted are these: Homo sapiens, NCI-H596, 24 h; H596, p53 mutated; after 1 day of exposure. The procedure: as §1, §2
A further assay concerns Hep 3B. Kind of assay: Cell viability, trypan blue cell count assay. Particulars: Homo sapiens, Hep3B, Hep 3B (liver, p53 deleted), 100% = untreated cells. The procedure: as §1
(§3) To further investigate the relationship between the induction of functional p53 and the subsequent apoptosis mediated by these drugs, the inventors posited that if BZs require wild-type p53 in order to exert their effect, then fenbendazole and mebendazole would not be cytotoxic to the many tumor lines producing a mutated p53 protein. To investigate this possibility, human cell lines derived from NSCLC origins of differing p53 status were further analyzed by a 5-day cell growth assay. The cells were plated onto a six-well plate, and the viability of the cells was determined by trypan blue exclusion. Cells were counted on a hemocytometer. The values shown are the means ±standard deviation of triplicate samples. Duplicate experiments gave similar results. H322 is a human lung adenocarcinoma line that produces a mutant p53 protein. […] However, fenbendazole and mebendazole induced nuclear accumulation of p53 only in the H460 cell line, which carries wild-type p53 genes. […] Cells were exposed to FZ (filled bar) or MZ (hatched bar) for 24 hr. A concentration of 0.05 μg/ml FZ and MZ was used. An immunoblot analysis of nuclear p53 was also performed to determine whether these drugs induced the production of p53. Equal amounts of protein extracts from each cell line before and after treatment were used for this analysis.

The next assay concerns MCF-7. Kind of assay: Cell viability, trypan blue cell count assay. Particulars: Homo sapiens, MCF7, MCF-7 (breast, wild-type p53), 100% = untreated cells. The procedure:
as §1, §3

The subject of the next assay is SK-OV-433. Kind of assay: Cell viability, trypan blue cell count assay. The conditions noted are these: Homo sapiens, SK-OV-433 (ovarian, wild-type p53), 100% = untreated cells. The procedure:
as §1, §3

In another assay the test system is H226Br. Kind of assay: Cell viability, trypan blue cell count assay. Particulars: Homo sapiens, H226Br (lung, R254), 100% = untreated cells. The procedure: as §1, §3
In a further assay the test system is HeLa. Kind of assay: Cell viability, trypan blue cell count assay. The conditions noted are these: Homo sapiens, HeLa (cervical, wild-type p53 inactivated by E6), 100% = untreated cells. The method, then: as §1, §3
A further assay deals with H549. Kind of assay: Cell viability, trypan blue cell count assay. The conditions noted are these: Homo sapiens, H549 (lung, wild-type p53), 100% = untreated cells. The procedure: as §1, §3
The subject of assay [4] is H460. Kind of assay: Cell viability, trypan blue cell count assay. Particulars: Homo sapiens, NCI-H460, H460 (lung, wild-type p53), 100% = untreated cells. The procedure: as §1, §3
For a further assay, the system named is H1299. The assay is described as follows: Cell viability, trypan blue cell count assay. The conditions noted are these: Homo sapiens, NCI-H1299, H1299 (lung, p53 deleted), 100% = untreated cells. The procedure: as §1, §3
Assay [5] concerns H358. Kind of assay: Cell viability, trypan blue cell count assay. Particulars: Homo sapiens, NCI-H358, H358 (lung, p53 deleted), 100% = untreated cells. The procedure:
as §1, §3

For assay [6], the system named is H596. The assay is described as follows: Cell viability, trypan blue cell count assay. The conditions noted are these: Homo sapiens. The procedure: as §1, §3
Another assay has as its system HT1080. The assay is described as follows: Cell viability, trypan blue cell count assay. Particulars: Homo sapiens, HT-1080, HT1080 (fibrosarcoma, wild-type p53), 100% = untreated cells. The procedure:
as §1, §3

Like-named read-outs stand apart in the source and are kept apart here.

For `COC(=O)Nc1nc2ccc(Sc3ccccc3)cc2[nH]1` [Fenbendazole, methy 5-(phenylthio)-2-benzimidazole-2-carbamate], the IC50 was found to be 0.853 µM in the assay with HeLa (p53 inactivated); 0.816 µM in the assay with H322; 0.123 µM in the assay with A549; 0.152 µM in the assay with H460 [1]; 0.654 µM with H358 [2]; 0.643 µM with H596 [3]. For the same compound, the viability at 0.05 µg/mL in the assay on Hep 3B amounted to 79.5 ± 12.5%; in the assay on MCF-7, 43.9 ± 7.3%; in the assay with SK-OV-433, 52.5 ± 13.2%; with H226Br, 80.1 ± 11.1%; with HeLa, 93.6 ± 7.4%; in the assay on H549, 46.4 ± 13.3%. The viability at 0.05 µg/mL with H460 [4] worked out at 39.2 ± 6.4%; in the assay on H1299 it was 89.2 ± 1.1%; with H358 [5], 88.3 ± 17.8%; in the assay on HT1080, 54.5 ± 12%. Besides, the viability in the assay on H596 [6] (NCI-H596, read-out: % Cell Viability) worked out at 86.7 ± 11.5%.

As for `COC(=O)Nc1nc2ccc(C(=O)c3ccccc3)cc2[nH]1` [Mebendazole, Methyl 5-benzoylbenzimidazole-2-carbamate], the IC50 came out at 0.4 µM in the assay on HeLa (p53 inactivated); 0.871 µM with H322; 0.13 µM in the assay with A549; 0.106 µM in the assay on H460 [1]; 0.893 µM in the assay with H358 [2]; 0.601 µM with H596 [3]. In addition, the viability at 0.05 µg/mL is 83.2 ± 1.5% in the assay on Hep 3B; 24.3 ± 8.4% in the assay with MCF-7; 28.1 ± 6.1% in the assay with SK-OV-433; 64.24 ± 0.2% in the assay on H226Br; 92.4 ± 6.27% in the assay with HeLa; 39.2 ± 10.7% with H549. For the same compound, the viability at 0.05 µg/mL came to 25.2 ± 7.6% in the assay on H460 [4], 89.2 ± 4.3% in the assay on H1299, 73.5 ± 1.8% in the assay on H358 [5] and 44.5 ± 7.7% in the assay on HT1080. Also, in the assay on H596 [6] (NCI-H596, H596 (lung, R245C), 100% = untreated cells, read-out: % Cell Viability), the viability was 86.2 ± 8%.
